Experimental data reported in patent EP0696280B1, “SUBSTITUTED PYRROLIDIN-3-YL-ALKYL-PIPERIDINES USEFUL AS TACHYKININ ANTAGONISTS” (MERRELL PHARMACEUTICALS INC., priority 1993, dated 1994).
Like-named read-outs stand apart in the source and are kept apart here.

Columns and labels:
NK1 receptor = target: T1, NK1 receptor (Cavia porcellus, UniProt P30547); assay: Antagonism of iodinated tachykinin binding to NK1 receptor (125I-Bolton Hunter Lys-3 labeled substance P, guinea pig lung membranes)
T1 construct: Tissues or cells were homogenized with a Polytron in 15 volumes of 50 mM Tris-HCl buffer; tissue Keystone Biologicals, Cleveland, OH; host or cells: guinea pig lung membranes
Method: (§1) The NK1 receptor affinity of proposed tachykinin antagonists was devaluated in guinea pig lungs (Keystone Biologicals, Cleveland, OH), affinity for the NK2 receptor evaluated in HSKR-1 cells (which are mouse 3T3 fibroblasts expressing the human jejunal NK2 receptor) and NK-3 receptor affinity was evaluated in freshly collected guinea pig cerebral cortex. Tissues or cells were homogenized with a Polytron in 15 volumes of 50 mM Tris-HCl buffer (pH 7.4, 4°C) and centrifuged. The pellet was resuspended in Tris-HCl buffer and was centrifuged; the pellet was washed twice by resuspension. The final pellet was resuspended at a concentration of 40 mg/ml for tissues (guinea pig lung and cerebral cortex) and 20 mg/ml for cells in incubation buffer and remained at room temperature for at least 15 min prior to use. Receptor binding was initiated by addition of 250 µl membrane preparation in duplicate to 0.1 nM of the following radioligands: ^125I-Bolton Hunter Lys-3 labeled substance P; ^125iodohistidyl-1-neurokinin A; and ^125I-Bolton Hunter labeled Lys-4 eledoisin in a final volume of 500 µl of buffer containing 50 mM Tris-HCl (pH 7.4 at room temperature), 0.1% bovine serum albumin, 2 mM MnCl2, 40 µg/ml bacitracin, 4 µg/ml leupeptin and chymostatin, 1 µM thiorphan and various doses of the putative tachykinin antagonists. Incubations were performed at room temperature for 90 min (NK1 receptor assays) or 2 hr (NK2 and NK3 receptor assays); binding was terminated by addition of 50 mM Tris-HCl buffer (pH 7.4, 4°C) and filtration under vacuum through GF/B filters presoaked with 0.1% polyethyleneimine (NK1 receptor assays) or 0.5% bovine serum albumin (NK2 and NK3 receptor assays). Filter bound radioactivity was quantitated in a gamma counter. Nonspecific binding was defined as binding in the presence of 1 µM substance P, neurokinin A, or eledoisin. Specific binding was calculated by subtracting nonspecific binding from total binding. Competition of iodinated SP, NKA, or eledoisin binding by test compounds or standards was expressed as a percentage of this maximum competition. IC50 values (concentration required to inhibit 50% of receptor binding) were generated for each of the test compounds by nonlinear regression using an iterative curve fitting program (GraphPAD Inplot, San Diego, CA).

[1] = target: T2, human jejunal NK2 receptor (Homo sapiens, UniProt P21452); assay: Antagonism of iodinated tachykinin binding to NK2 receptor (125iodohistidyl-1-neurokinin A, HSKR-1 cell membranes); conditions: HSKR-1 cells (mouse 3T3 fibroblasts expressing human jejunal NK2 receptor); mean of several experiments; read-out: NK-2 IC50
T2 construct: expressed in transfected cells; host or cells: HSKR-1 cells (mouse 3T3 fibroblasts)
T2 sequence (P21452 1-398): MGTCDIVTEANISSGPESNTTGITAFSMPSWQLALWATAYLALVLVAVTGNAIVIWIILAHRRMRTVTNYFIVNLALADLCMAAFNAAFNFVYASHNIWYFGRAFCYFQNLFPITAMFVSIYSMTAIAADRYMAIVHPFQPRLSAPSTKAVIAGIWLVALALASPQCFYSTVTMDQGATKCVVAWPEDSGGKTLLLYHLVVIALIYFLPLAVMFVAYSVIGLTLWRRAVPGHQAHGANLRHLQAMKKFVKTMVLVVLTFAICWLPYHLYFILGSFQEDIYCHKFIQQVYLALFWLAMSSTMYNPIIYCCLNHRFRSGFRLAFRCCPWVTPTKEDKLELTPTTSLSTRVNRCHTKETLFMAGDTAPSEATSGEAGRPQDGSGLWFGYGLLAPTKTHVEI
Method: as §1

NK-3 receptor = target: T3, NK-3 receptor (Cavia porcellus, UniProt P30098); assay: Antagonism of iodinated tachykinin binding to NK-3 receptor (125I-Bolton Hunter labeled Lys-4 eledoisin, guinea pig cerebral cortex membranes)
T3 construct: freshly collected guinea pig cerebral cortex; from tissue; host or cells: guinea pig cerebral cortex membranes
T3 sequence (P30098 1-440): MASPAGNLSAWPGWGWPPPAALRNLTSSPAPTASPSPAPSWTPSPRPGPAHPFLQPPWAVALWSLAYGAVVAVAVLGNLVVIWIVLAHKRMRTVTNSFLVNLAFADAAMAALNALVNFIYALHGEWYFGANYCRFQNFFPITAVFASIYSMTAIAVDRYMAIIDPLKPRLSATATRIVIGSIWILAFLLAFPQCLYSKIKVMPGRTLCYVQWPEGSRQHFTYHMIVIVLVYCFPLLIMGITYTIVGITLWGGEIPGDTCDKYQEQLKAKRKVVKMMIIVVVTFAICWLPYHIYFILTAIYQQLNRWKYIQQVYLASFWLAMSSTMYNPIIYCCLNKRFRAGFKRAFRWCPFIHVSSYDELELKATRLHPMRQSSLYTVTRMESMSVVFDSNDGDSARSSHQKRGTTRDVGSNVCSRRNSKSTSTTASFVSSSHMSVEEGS
Method: as §1

[2] = tested on: capsaicin-induced respiratory effects; assay: Antagonism of capsaicin aerosol induced respiratory effects in conscious guinea pigs (whole body plethysmography); format: in vivo, guinea pig; conditions: for DYSPNEA ONSET / MAXIMUM PRESSURE INCREASE (mmH2O) / SRE NUMBER*: mean and SEM; for SRE NUMBER*: number of coughs/gasps during 19 min exposure
Method: In vivo experiments were performed using male Duncan Hartley guinea pigs (250-350g). Changes in conscious breathing patterns were monitored in four animals simultaneously using modified whole body plethysmography consisting of four small plexiglass boxes each connected to a reference box via Validyne DP 45-16 differential pressure transducers. The 4 boxes were equipped with an air supply line (also used for aerosol delivery) and an exhaust air line. Supply and exhaust lines were of the same length and narrow bore and arose from a common supply chamber and vented to a common exhaust chamber. This system was used to ensure that fluctuations in supply air and atmospheric pressure would remain in phase and be eliminated from the net signal by the differential pressure transducers. The analog pressure signals were digitalized via a Data Translation DT2821 A to D board. Data were collected at a rate of 100 samples/second/animal. Each cycle of pressure change was analyzed using the following parameters: rising and falling slope determined between minimum and maximum pressures, the ratio of rising over falling slope, and the magnitude of the change between initial trough pressure and peak cycle pressure. Using these values (and observing the animals) the pressure cycles were characterized into normal breaths, forced exhalations (apparent by abdominal heaving), significant respiratory events (SREs; usually coughs, less often sneezes or gasps which were characterized by transient, extremely large pressure increases which were distinguishable from noise) and movement/noise with a PCAT 286 running a System V UNIX operating system. Dyspnea was defined as a significant, sustained increase in plethysmograph pressure which was associated with an observable shift to labored breathing in the animal.
During the course of a typical experiment in which airway responsiveness to various bronchoconstricting agents was examined, aerosols were delivered for 19 min (0.33 ml/min) using a DeVilbiss Ultraneb 99 ultrasonic nebulizer and animals monitored during this time. Prior to nebulization, 1 min of resting breathing was collected to establish a baseline pressure. […] The vehicle for nebulization of all bronchoconstrictive agents was phosphate buffered saline (pH 7.4) which elicited no respiratory effects itself. Putative tachykinin antagonists were administered either (i.v.) 20 min prior to onset of aerosol exposure or orally 1 hour prior to onset (to guinea pigs after an overnight fast).
Capsaicin aerosol is known to promote release of the tachykinins SP and NKA from sensory nerves in the airways of guinea pigs which may then act upon NK1 and NK2 receptors, respectively to elicit respiratory effects. […]
(§2) Values are mean and SEM of data derived from number of animals indicated in parenthesis. Putative tachykinin antagonists were administered intravenously 20 min prior to initiation of capsaicin aerosol (0.001%). *SRE number indicates the number of coughs/gasps which occurred during the 19 min capsaicin exposure period.
as §2, with “by oral gavage 1 hr” for “intravenously 20 min”

[3] = guinea pig lungs, mean of several experiments, read-out: NK-1 IC50
[4] = guinea pig cerebral cortex, mean of several experiments, read-out: NK-3 IC50
[5] = 25 mg/kg by oral gavage 1 hr prior to capsaicin aerosol (0.001%)
[6] = 50 mg/kg by oral gavage 1 hr prior to capsaicin aerosol (0.001%)

T1 sequence (P30547 whole entry): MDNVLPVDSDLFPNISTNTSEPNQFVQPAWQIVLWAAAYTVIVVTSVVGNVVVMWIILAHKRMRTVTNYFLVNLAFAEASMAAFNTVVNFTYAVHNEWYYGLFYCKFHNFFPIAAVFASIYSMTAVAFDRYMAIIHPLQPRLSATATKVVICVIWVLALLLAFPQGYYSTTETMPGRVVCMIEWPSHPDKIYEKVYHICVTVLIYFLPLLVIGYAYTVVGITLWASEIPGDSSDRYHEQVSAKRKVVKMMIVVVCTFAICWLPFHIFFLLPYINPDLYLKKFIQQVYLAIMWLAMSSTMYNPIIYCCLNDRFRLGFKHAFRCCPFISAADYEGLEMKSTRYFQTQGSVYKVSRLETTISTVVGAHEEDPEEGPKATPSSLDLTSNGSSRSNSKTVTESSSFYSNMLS

NC(=O)C1(c2ccccc2)CCN(CCC2(c3ccc(Cl)c(Cl)c3)CC(=O)N(Cc3ccccc3)C2)CC1 (stereo not shown) [Example 11, 1-[2-[1-benzyl-3-(3,4-dichloro-phenyl)-5-oxo-pyrrolidin-3-yl]-ethyl]-4-phenyl-piperidine-4-carboxylic acid amide]
IC50 (NK1 receptor; [3]): 196 nM | IC50 [1]: 127 nM | IC50 (NK-3 receptor; [4]): 203 nM

COc1ccc(C(=O)N2CCC(CCN3CCC(C(N)=O)(c4ccccc4)CC3)(c3ccc(Cl)c(Cl)c3)C2)c(OC)c1 (stereo not shown) [Example 2, 1-[2-[3-(3,4-dichloro-phenyl)-1-(2,4-dimethoxy-benzoyl)-pyrrolidin-3-yl]-ethyl]-4-phenyl-piperidine-4-carboxylic acid amide]
IC50 (NK1 receptor; [3]): 131 nM | IC50 [1]: 34 nM | IC50 (NK-3 receptor): 65 nM

COC(=O)[C@@H](NC(=O)C1(c2ccccc2)CCN(CCC2(c3ccc(Cl)c(Cl)c3)CCN(C(=O)c3ccccc3)C2)CC1)[C@@H](C)O (stereo partly shown) [Example 7, 2-[(1-(2-[1-benzoyl-3-(3,4-dichloro-phenyl)-pyrrolidin-3-yl]-ethyl)-4-phenyl-piperidine-4-carboxyl)-amino]-3-hydroxy butyric acid methyl ester]
IC50 (NK1 receptor; [3]): 240 nM | IC50 [1]: 10 nM | IC50 (NK-3 receptor; [4]): 202 nM

COc1cccc(OC)c1C(=O)N1CCC(CCN2CCC(C(N)=O)(c3ccccc3)CC2)(c2ccc(Cl)c(Cl)c2)C1 (stereo not shown) [Example 5, 1-[2-[3-(3,4-dichloro-phenyl)-1-(2,6-dimethoxy-benzoyl)-pyrrolidin-3-yl]-ethyl]-4-phenyl-piperidine-4-carboxylic acid amide]
IC50 (NK1 receptor): 20 nM | IC50 [1]: 41 nM | IC50 (NK-3 receptor): 65 nM | DYSPNEA INCIDENCE [2, 5]: 66.7% (6/9) | DYSPNEA ONSET [2, 5]: 253 ± 47 s | MAXIMUM PRESSURE INCREASE (mmH2O) [2, 5]: 0.7 ± 0.1 mmH2O | SRE NUMBER* [2, 5]: 4.4 ± 1.2 | DYSPNEA INCIDENCE [2, 6]: 85.7% (6/7) | DYSPNEA ONSET [2, 6]: 384 ± 85 s | MAXIMUM PRESSURE INCREASE (mmH2O) [2, 6]: 0.5 ± 0.1 mmH2O | SRE NUMBER* [2, 6]: 4.9 ± 1.9

COc1cccc(OC)c1C(=O)N1CCC(CCN2CCC3(CC2)C(=O)NCN3c2ccccc2)(c2ccc(Cl)c(Cl)c2)C1 (stereo not shown) [Example 9, 8-[2-[3-(3,4-dichloro-phenyl)-1-(2,6-dimethoxy-benzoyl)-pyrrolidin-3-yl]-ethyl]-1-phenyl-1,3,8-triaza-spiro[4.5]decane-4-one]
IC50 (NK1 receptor; [3]): 49 nM | IC50 [1]: 118 nM | IC50 (NK-3 receptor; [4]): 183 nM

O=C(c1ccccc1)N1CCC(CCN2CCC3(CC2)C(=O)NCN3c2ccccc2)(c2ccc(Cl)c(Cl)c2)C1 (stereo not shown) [Example 10, 8-[2-[3-(3,4-dichloro-phenyl)-1-benzoyl-pyrrolidin-3-yl]-ethyl]-1-phenyl-1,3,8-triaza-spiro[4.5]-decane-4-one]
IC50 (NK1 receptor; [3]): 255 nM | IC50 [1]: 11 nM | IC50 (NK-3 receptor; [4]): 1190 nM

NC(=O)C1(c2ccccc2)CCN(CCC2(c3ccc(Cl)c(Cl)c3)CCN(C(=O)c3ccccc3)C2)CC1 (stereo not shown) [Example 1, 1-[2-[3-(3,4-dichloro-phenyl)-1-benzoyl-pyrrolidin-3-yl]-ethyl]-4-phenyl-piperidine-4-carboxylic acid amide]
IC50 [1]: 7 nM | IC50 (NK-3 receptor): 162 nM
